Test results taken from patent publication US3939150A, “Penicillin derivatives” (priority 1973, dated 1976).
Entries after “also recorded” stand apart in the source; their conditions may differ. Structures can show the parent of a compound that is named as a salt.

Legend:
[1] = system: Pseudomonas aeruginosa NC-5 strain; assay: Protective effect against experimentally infected mice, two oral administrations; assay type: in vivo, mice infected with Pseudomonas aeruginosa
Procedure: c. Mice (one group included five mice) were infected with Pseudomonas aeruginosa NC-5 strain via the intraperitoneal route and the test substance was orally administered twice, i. e., immediately after challenge of the test organism and after 2 hours.

[2] = cited from earlier work
[3] = system: Pseudomonas aeruginosa 35 strain; assay: MIC distribution, clinical isolated strains; assay type: cell-based; details: of 35 strains; for number of strains with MIC 1.56: MIC 1.56 μ/ml; for number of strains with MIC 12.5: MIC 12.5 μ/ml; for number of strains with MIC 25: MIC 25 μ/ml; for number of strains with MIC 50: MIC 50 μ/ml; for number of strains with MIC 100: MIC 100 μ/ml; for number of strains with MIC >100: MIC >100 μ/ml
Excerpt: (Pseudomonas aeruginosa 35 strain)
(§1) It is clear from the results shown in the above tables, as regards the antibacterial activities against clinical isolated strains, the compounds of this invention show quite high activity against not only Pseudomonas aeruginosa but also against Klebsiella as compared with carbenicillin

[4] = system: Escherichia coli 31 strain; assay: MIC distribution, clinical isolated strains; assay type: cell-based; details: of 31 strains; for number of strains with MIC 1.56: MIC 1.56 μ/ml; for number of strains with MIC 12.5: MIC 12.5 μ/ml; for number of strains with MIC 25: MIC 25 μ/ml; for number of strains with MIC 50: MIC 50 μ/ml; for number of strains with MIC 100: MIC 100 μ/ml; for number of strains with MIC >100: MIC >100 μ/ml
Excerpt: (Escherichia coli 31 strain)
as §1

[5] = system: Klebsiella 78 strain; assay: MIC distribution, clinical isolated strains; assay type: cell-based; details: of 78 strains; for number of strains with MIC 1.56: MIC 1.56 μ/ml; for number of strains with MIC 12.5: MIC 12.5 μ/ml; for number of strains with MIC 25: MIC 25 μ/ml; for number of strains with MIC 50: MIC 50 μ/ml; for number of strains with MIC 100: MIC 100 μ/ml; for number of strains with MIC 400: MIC 400 μ/ml; for number of strains with MIC >400: MIC >400 μ/ml
Excerpt: as §1

[6] = system: Pseudomonas aeruginosa NC-5 strain; assay: Protective effect against experimentally infected mice, one subcutaneous administration; assay type: in vivo, mice infected with Pseudomonas aeruginosa; details: s.c. once
Excerpt: a. Mice (one group included five mice) were infected with pseudomonas aeruginosa NC-5 strain the intraperitoneal route and a solution prepared by dissolving the test antibiotics in sterilized distilled water was once administered by subcutaneous injection immediately after challenge of the test organism and then the numbers of living mice were inspected. […] (The figures shown in Tables VII-IX have the same meaning).

[7] = system: Pseudomonas aeruginosa NC-5 strain; assay: Protective effect against experimentally infected mice, three subcutaneous administrations; assay type: in vivo, mice infected with Pseudomonas aeruginosa; details: s.c.
Procedure: b. Mice (one group included five mice) were infected with pseudomonas aeruginosa NC-5 strain via intraperitoneal route and a solution prepared by dissolving the test substance in sterilized distilled water was administered by subcutaneous injection three times, i. e., immediately after challenge of the test organism, after 2 hours, and after 4 hours.

[8] = system: Proteus mirabilis 1287 strain; assay: Protective effect against experimentally infected mice, one subcutaneous administration; assay type: in vivo, mice infected with Proteus mirabilis; details: s.c. once, 2 hours after challenge
Procedure: d. Mice (one group included five mice) were infected with Proteus mirabilis 1287 strain via the intraperitoneal route and a solution prepared by dissolving the test antiobiotics in sterilized distilled water was once administered by subcutaneous injection 2 hours after of challenge of the test organism.

[9] = system: male dd-N mice; assay: Acute toxicity (minimum lethal dose); assay type: in vivo
Excerpt: a. The minimum lethal doses (MLD) when the compound of this invention was intravenously and subcutaneously administered to male dd-N mice are shown in Table X.

[10] = system: male Sprague-Dawley rats; assay: Nephrotoxicity after 1 week subcutaneous injection; assay type: in vivo; details: 7 days
Procedure: b. Test antibiotics were administered to male Sprague-Dawley rats by subcutaneous injection daily for 7 days. After seven days, animals were sacrificed and estimated for organ weight and serum urea-nitrogen including visual studies of kidney.

[11] = system: male Sprague-Dawley rats; assay: Acute nephrotoxicity in combination with glycerol and furocemide in rats; assay type: in vivo; details: for Serum urea nitrogen: with glycerol 4 ml/Kg of 50% and furocemide 50 mg/Kg s.c., 48 hours; for serum urea nitrogen relative to control group (in words): with glycerol and furocemide
Procedure: c. Glycerol (50%, 4 ml/kg), furocemide (50 mg/kg) and test actibiotics were injected subcutaneously in male Sprague-Dawley rats. […] Animals of each group were sacrificed 48 hours later to estimate serum urea-nitrogen values.

[12] = system: Klebsiella genus; details: background; cited from earlier work
[13] = system: gram negative bacteria; details: background; cited from earlier work
[14] = Water solubility and pH of aqueous solution; assay type: physicochemical; details: 250 mg/ml in water
Procedure: As the compounds of this invention are easily soluble in water, the compound can be clinically used as an agent for parenteral administration such as an agent for intravenous injection and an agent for intramuscular injection. For example, when sodium D(-)-6-[α-(p-hydroxyphenyl)-α-(4-oxo-4H-thiopyran-3-yl-carboxanido acetamido]penicillanate is dissolved in water, the pH of the solution is about 5.8 (250 mg/ml).

[15] = Stability of di-hydrate; assay type: physicochemical
Excerpt: In addition, if the water-containing organic solvent solution keeps up its homogeneity, an organic solvent immiscible with water such as methylene chloride, chloroform, etc., may be added to the solution.

[16] = system: male Sprague-Dawley rats; details: small dose subcutaneously; cited from earlier work

CC1(C)S[C@@H]2[C@H](NC(=O)[C@H](N)c3ccc(O)cc3)C(=O)N2[C@H]1C(=O)O [Amoxicillin, α-amino-p-hydroxybenzylpenicillin]
number of living mice / number of mice inspected ([1]; 25 × 2 mg): 0/5
number of living mice / number of mice inspected ([1]; 50 × 2 mg): 0/5
number of living mice / number of mice inspected ([1]; 100 × 2 mg): 0/5
concentration in blood by oral administration [2]: high concentration in blood by oral administration

CC1(C)S[C@@H]2[C@H](NC(=O)C(C(=O)O)c3ccccc3)C(=O)N2[C@H]1C(=O)O (stereo partly drawn) [Carbenicillin, α-carboxybenzylpenicillin]
number of strains with MIC 1.56 [3]: 0
number of strains with MIC […] ([3]; MIC 3.13 μ/ml): 0
number of strains with MIC […] ([3]; MIC 6.25 μ/ml): 0
number of strains with MIC 12.5 [3]: 0
number of strains with MIC 25 [3]: 3
number of strains with MIC 50 [3]: 4
number of strains with MIC 100 [3]: 8
number of strains with MIC >100 [3]: 20
number of strains with MIC 1.56 [4]: 1
number of strains with MIC […] ([4]; MIC 3.13 μ/ml): 7
number of strains with MIC […] ([4]; MIC 6.25 μ/ml): 8
number of strains with MIC 12.5 [4]: 6
number of strains with MIC 25 [4]: 0
number of strains with MIC 50 [4]: 0
number of strains with MIC 100 [4]: 0
number of strains with MIC >100 [4]: 9
number of strains with MIC 1.56 [5]: 1
number of strains with MIC […] ([5]; MIC 3.13 μ/ml): 1
number of strains with MIC […] ([5]; MIC 6.25 μ/ml): 1
number of strains with MIC 12.5 [5]: 0
number of strains with MIC 25 [5]: 0
number of strains with MIC 50 [5]: 8
number of strains with MIC 100 ([5]; first column headed 100): 8
number of strains with MIC 100 ([5]; second column headed 100): 16
number of strains with MIC 400 [5]: 16
number of strains with MIC >400 [5]: 27
number of living mice / number of mice inspected ([6]; 15 mg): 1/5
number of living mice / number of mice inspected ([6]; 30 mg): 2/5
number of living mice / number of mice inspected ([6]; 60 mg): 4/5
number of living mice / number of mice inspected ([7]; 2.5 × 3 mg): 2/5
number of living mice / number of mice inspected ([7]; 5 × 3 mg): 0/5
number of living mice / number of mice inspected ([7]; 10 × 3 mg): 5/5
number of living mice / number of mice inspected ([8]; 1.25 mg): 0/5
number of living mice / number of mice inspected ([8]; 2.5 mg): 1/5
number of living mice / number of mice inspected ([8]; 5 mg): 2/5
number of living mice / number of mice inspected ([8]; 10 mg): 4/5
MLD ([9]; i.v.): 7000 mg/kg
MLD ([9]; s.c.): > 10000 mg/kg
Kidney weights ([10]; 1000 mg/Kg/day sc): 2.53 g
Serum urea-N ([10]; 1000 mg/Kg/day sc): 24.0 mg/dL
renal findings ([10]; 1000 mg/Kg/day sc): no abnormal findings
Serum urea nitrogen ([11]; 1000 mg/Kg s.c.): 29.7 ± 7.2 mg/dL
nephrotoxicity (in words) ([11]; rat, in vivo): no nephrotoxicity resulted
serum urea nitrogen relative to control group (in words) [11]: no remarkable difference
activity against the Klebsiella genus (in words) [12]: weak antibacterial activity against the Klebsiella genus

O=C(Cc1cccs1)N[C@@H]1C(=O)N2C(C(=O)[O-])=C(C[n+]3ccccc3)CS[C@H]12 [Cephaloridine]
Serum urea nitrogen ([11]; 500 mg/Kg s.c.): 50.7 ± 13.6 mg/dL
serum urea nitrogen relative to control group (in words) [11]: remarkable increase of serum urea nitrogen

CC1(C)S[C@@H]2[C@H](NC(=O)[C@H](N)C3=CCC=CC3)C(=O)N2[C@H]1C(=O)O [Epicillin, 6-[D-2-amino-2-(1,4-cyclohexadien-1-yl)acetamido]penicillanic acid]
activity to gram negative bacteria (in words) [13]: selective antibacterial activity to, in particular, gram negative bacteria

CC1(C)S[C@@H]2[C@H](NC(=O)[C@H](NC(=O)c3csccc3=O)c3ccc(O)cc3)C(=O)N2[C@H]1C(=O)O [Example 3, α-(4-oxo-4H-thiopyran-3-carboxamido)-p-hydroxybenzylpenicillin sodium salt]
number of strains with MIC 1.56 [3]: 2
number of strains with MIC […] ([3]; MIC 3.13 μ/ml): 5
number of strains with MIC […] ([3]; MIC 6.25 μ/ml): 6
number of strains with MIC 12.5 [3]: 6
number of strains with MIC 25 [3]: 2
number of strains with MIC 50 [3]: 5
number of strains with MIC 100 [3]: 2
number of strains with MIC >100 [3]: 7
number of strains with MIC 1.56 [4]: 2
number of strains with MIC […] ([4]; MIC 3.13 μ/ml): 1
number of strains with MIC […] ([4]; MIC 6.25 μ/ml): 8
number of strains with MIC 12.5 [4]: 9
number of strains with MIC 25 [4]: 2
number of strains with MIC 50 [4]: 0
number of strains with MIC 100 [4]: 0
number of strains with MIC >100 [4]: 9
number of strains with MIC 1.56 [5]: 0
number of strains with MIC […] ([5]; MIC 3.13 μ/ml): 0
number of strains with MIC […] ([5]; MIC 6.25 μ/ml): 2
number of strains with MIC 12.5 [5]: 17
number of strains with MIC 25 [5]: 30
number of strains with MIC 50 [5]: 1
number of strains with MIC 100 ([5]; first column headed 100): 1
number of strains with MIC 100 ([5]; second column headed 100): 7
number of strains with MIC 400 [5]: 4
number of strains with MIC >400 [5]: 16
number of living mice / number of mice inspected ([6]; 15 mg): 2/5
number of living mice / number of mice inspected ([6]; 30 mg): 3/5
number of living mice / number of mice inspected ([6]; 60 mg): 5/5
number of living mice / number of mice inspected ([7]; 2.5 × 3 mg): 5/5
number of living mice / number of mice inspected ([7]; 5 × 3 mg): 5/5
number of living mice / number of mice inspected ([7]; 10 × 3 mg): 5/5
number of living mice / number of mice inspected ([1]; 25 × 2 mg): 2/5
number of living mice / number of mice inspected ([1]; 50 × 2 mg): 3/5
number of living mice / number of mice inspected ([1]; 100 × 2 mg): 5/5
number of living mice / number of mice inspected ([8]; 1.25 mg): 1/5
number of living mice / number of mice inspected ([8]; 2.5 mg): 2/5
number of living mice / number of mice inspected ([8]; 5 mg): 4/5
number of living mice / number of mice inspected ([8]; 10 mg): 3/5
MLD ([9]; i.v.): 3500 mg/kg
MLD ([9]; s.c.): 7000 mg/kg
Kidney weights ([10]; 1000 mg/Kg/day sc): 2.30 g
Serum urea-N ([10]; 1000 mg/Kg/day sc): 20.3 mg/dL
Serum urea nitrogen ([11]; 1000 mg/Kg s.c.): 23.3 ± 2.5 mg/dL
pH of the solution [14]: about 5.8

CC1(C)S[C@@H]2[C@H](NC(=O)[C@H](NC(=O)c3csccc3=O)c3ccc(O)cc3)C(=O)N2[C@H]1C(=O)O [Example 27, D(-)-6-[p-hydroxy-phenyl-α-(4-oxo-4H-thiopyran-3-ylcarboxamido)acetamido]penicillanic acid di-hydrate]
stability [15]: pure and stable

NC[C@H]1O[C@H](O[C@H]2[C@H](O)[C@@H](O[C@H]3O[C@H](CO)[C@@H](O)[C@H](N)[C@H]3O)[C@H](N)C[C@@H]2N)[C@H](O)[C@@H](O)[C@@H]1O [Kanamycin]
Kidney weights ([10]; 500 mg/kg/day sc): 3.52 g
Serum urea-N ([10]; 500 mg/kg/day sc): 70.7 mg/dL
renal findings ([10]; 500 mg/kg/day sc): renal hypertropy, ischemia of renal cortex; also recorded: abnormal increase of serum urea-nitrogen values; also recorded: severe renal impairement

OCC(O)CO [glycerol]
renal impairment [16]: mild and reversible renal impairment
